In patent publication US20030166583A1, “Dermal cytochrome P450 1A inhibitors and enhancers” (priority 2002, published 2003):
“Also recorded” adds a separate entry of the source.

Columns and labels:
dermal CYP1A = assay: Dermal microsomal CYP1A enzymatic activity (7-ethoxyresorufin-O-deethylase), inhibition or enhancement; details: for inhibitory effect on dermal CYP1A activity, in words: at certain concentration (1, 10 or 100 μM); for enhancing effect on dermal CYP1A activity, in words: at certain concentrations (1, 10 or 100 μM)
Excerpt: (§1) Nude mice were sacrificed by decapitation.
(§2) The precipitate containing the microsomes was obtained.

liver CYP1A = assay: Liver microsomal CYP1A enzymatic activity, inhibition or enhancement; details: for enhancing effect on liver CYP1A activity, in words / inhibitory effect on liver CYP1A activity, in words: at certain concentration (1, 10 or 100 μM); for liver CYP1A activity (% of control group): liver microsomes
CYP1A = assay: in vitro; details: nude, mouse
Excerpt: as §1, §2

[1] = compound 1 μM, skin microsomes, mean of at least 3 repeats
[2] = compound 10 μM, skin microsomes, mean of at least 3 repeats
[3] = compound 100 μM, skin microsomes, mean of at least 3 repeats
[4] = pH 7.8, dermal CYP1A activity (% of control group)

| Compound | inhibitory effect on dermal CYP1A activity, in words (dermal CYP1A) | dermal CYP1A activity (% of control group) (dermal CYP1A; [1]) | dermal CYP1A activity (% of control group) (dermal CYP1A; [2]) | dermal CYP1A activity (% of control group) (dermal CYP1A; [3]) | enhancing effect on liver CYP1A activity, in words (liver CYP1A) | liver CYP1A activity (% of control group) (liver CYP1A; compound 1 μM) | liver CYP1A activity (% of control group) (liver CYP1A; compound 10 μM) | liver CYP1A activity (% of control group) (liver CYP1A; compound 100 μM) | other results |
| --- | --- | --- | --- | --- | --- | --- | --- | --- | --- |
| O=C1C[C@@H](c2ccc(O)cc2)Oc2cc(O)cc(O)c21 [Narigenin] | inhibition effects | 29.41% | 34.90% | 17.26% | enhancing effect | 116.45% | 107.17% | 41.64% | inhibition of dermal CYP1A activity (dermal CYP1A; compound 100 μM): about 83%; inhibitory effect on liver CYP1A activity, in words (liver CYP1A): inhibitory effects |
| C=C(C)C1CC=C(C)CC1 (single isomer, unassigned; (+)) [(+)-Limonene] | inhibition effects | – | – | – | – | – | – | – | enhancing effect on dermal CYP1A activity, in words (dermal CYP1A): enhancing effects; inhibition of dermal CYP1A activity (dermal CYP1A; compound 1 μM): about 51% |
| O=c1cc(-c2ccc(O)c(O)c2)oc2cc(O[C@@H]3O[C@H](CO)[C@@H](O)[C@H](O)[C@H]3O)cc(O)c12 [Luteolin-7-glucoside] | inhibition effects | 105.07% | 88.05% | 2.53% | enhancing effect | 109.79% | 119.53% | 123.78% | inhibitory effect on dermal CYP1A activity, in words (dermal CYP1A; listed as luteolin-7-glycoside): strongest inhibitory effect; also recorded: most effective inhibitors; enhancing effect on dermal CYP1A activity, in words (dermal CYP1A): enhancing effects; inhibition of dermal CYP1A activity (dermal CYP1A; compound 100 μM, 100 µM): about 97% |
| COc1ccc([C@@H]2CC(=O)c3c(O)cc(O[C@@H]4O[C@H](CO[C@@H]5O[C@@H](C)[C@H](O)[C@@H](O)[C@H]5O)[C@@H](O)[C@H](O)[C@H]4O)cc3O2)cc1O [Hesperidin] | inhibition effects | 62.61% | 52.72% | 57.75% | enhancing effect | 99.65% | 87.38% | 102.94% | inhibition of dermal CYP1A activity (dermal CYP1A; compound 10 μM): about 47%; inhibitory effect on liver CYP1A activity, in words (liver CYP1A): inhibitory effects |
| COc1ccc([C@@H]2CC(=O)c3c(O)cc(O)cc3O2)cc1O [Hesperetin] | – | – | – | – | – | – | – | – | activity at 10 min, 1 µM (CYP1A; [4]): ~7%; activity at 10 min, 10 µM (CYP1A; [4]): 24.6%; activity at 10 min, 100 µM (CYP1A; [4]): 66%; inhibition at 10 min, 1 µM (CYP1A; pH 7.8, inhibition of dermal CYP1A activity): > 90%; dose dependence of the inhibitory effect on dermal CYP1A (dermal CYP1A): the higher the hesperetin concentration, the lower the inhibitory effect; dermal CYP1A activity (% of control group) (dermal CYP1A; nude, mouse, 10 min, 1 µM, pH 7.8): 6.89% |
| C=C[C@H]1[C@H](O[C@@H]2O[C@H](CO)[C@@H](O)[C@H](O)[C@H]2O)OC=C2C(=O)OCC[C@]21O [Swertiamarin] | – | – | – | – | – | – | – | – | activity at 10 min, 1 µM (CYP1A; pH 7.8): 98.5%; activity at 10 min, 10 µM (CYP1A; pH 7.8): 96.5%; activity at 10 min, 100 µM (CYP1A; pH 7.8): 105% |
| O=C/C=C/c1ccccc1 [Trans-cinnamaldehyde] | – | – | – | – | – | – | – | – | inhibition at 10 min, 100 µM (CYP1A; pH 7.8): ~80% |
| COc1c(O)cc2oc(Oc3ccc(O)cc3)cc(=O)c2c1O [capillarisin, Capillarisin] | strong inhibitory effects | – | – | – | – | – | – | – | – |
| O=c1cc(-c2ccc(O)c(O)c2)oc2cc(O)c([C@@H]3O[C@H](CO)[C@@H](O)[C@H](O)[C@H]3O)c(O)c12 [homoorientin] | strong inhibitory effects | – | – | – | – | – | – | – | – |
